Patent publication US8138183B2, “Morpholino pyrimidine derivatives used in diseases linked to mTOR kinase and/or PI3K” (AstraZeneca AB, priority 2007, dated 2012)

Target: recombinant mTOR (Homo sapiens, UniProt P42345)
Assay: In Vitro mTOR Kinase Assay (Echo), Test (a)(ii) (AlphaScreen)
Type: biochemical
Settings: Echo acoustic dispensing
Protocol: (a)(ii) In Vitro mTOR Kinase Assay (Echo)
The assay used AlphaScreen technology (Gray et al., Analytical Biochemistry, 2003, 313: 234-245) to determine the ability of test compounds to inhibit phosphorylation by recombinant mTOR.
The HEK293 FLAG-tagged mTOR (1362-2549) stable cell line was routinely maintained at 37° C. with 5% CO2 up to a confluency of 70-90% in Dulbecco's modified Eagle's growth medium (DMEM; Invitrogen Limited, Paisley, UK Catalogue No. 41966-029) containing 10% heat-inactivated foetal calf serum (FCS; Sigma, Poole, Dorset, UK, Catalogue No. F0392), 1% L-glutamine (Gibco, Catalogue No. 25030-024) and 2 mg/ml Geneticin (G418 sulfate; Invitrogen Limited, UK Catalogue No. 10131-027). Following expression in the mammalian HEK293 cell line, expressed protein was purified using the FLAG epitope tag using standard purification techniques.
Aliquots ([…]) of each compound dilution were acoustically […] using a Labcyte Echo 550 into a well of a Greiner 384-well low volume (LV) white polystyrene plate (Greiner Bio-one). A […] mixture of recombinant purified mTOR enzyme, 1 μM biotinylated peptide substrate (Biotin-Ahx-[…]NH2; Bachem UK Ltd), ATP (20 μM) and a buffer solution [comprising Tris-HCl pH7.4 buffer (50 mM), EGTA (0.1 mM), bovine serum albumin (0.5 mg/mL), DTT (1.25 mM) and manganese chloride (10 mM)] was incubated at room temperature for […].
These assay solutions were incubated for 2 hours at room temperature.
Each reaction was stopped by the addition of […] of a mixture of EDTA (50 mM), bovine serum albumin (BSA; 0.5 mg/mL) and Tris-HCl pH7.4 buffer (50 mM) containing
p70 S6 Kinase (T389) 1A5 Monoclonal Antibody (Cell Signalling Technology, Catalogue No. 9206B) and AlphaScreen Streptavidin donor and Protein A acceptor beads (200 ng; Perkin Elmer, Catalogue No. 6760002B and 6760137R respectively) were added and the assay plates were left overnight at room temperature in the dark. The resultant signals arising from laser light excitation at 680 nm were read using a Packard Envision instrument.
The phosphorylated biotinylated peptide that is associated with AlphaScreen Streptavidin donor beads forms a complex with the p70 S6 Kinase (T389) 1A5 Monoclonal Antibody that is associated with Alphascreen Protein A acceptor beads. Upon laser light excitation at 680 nm, the donor bead : acceptor bead complex produces a signal that can be measured. Accordingly, the presence of mTOR kinase activity results in an assay signal. In the presence of an mTOR kinase inhibitor, signal strength is reduced. mTOR enzyme inhibition for a given test compound was expressed as an IC50 value.

recombinant mTOR, sequence (P42345 1362-2549): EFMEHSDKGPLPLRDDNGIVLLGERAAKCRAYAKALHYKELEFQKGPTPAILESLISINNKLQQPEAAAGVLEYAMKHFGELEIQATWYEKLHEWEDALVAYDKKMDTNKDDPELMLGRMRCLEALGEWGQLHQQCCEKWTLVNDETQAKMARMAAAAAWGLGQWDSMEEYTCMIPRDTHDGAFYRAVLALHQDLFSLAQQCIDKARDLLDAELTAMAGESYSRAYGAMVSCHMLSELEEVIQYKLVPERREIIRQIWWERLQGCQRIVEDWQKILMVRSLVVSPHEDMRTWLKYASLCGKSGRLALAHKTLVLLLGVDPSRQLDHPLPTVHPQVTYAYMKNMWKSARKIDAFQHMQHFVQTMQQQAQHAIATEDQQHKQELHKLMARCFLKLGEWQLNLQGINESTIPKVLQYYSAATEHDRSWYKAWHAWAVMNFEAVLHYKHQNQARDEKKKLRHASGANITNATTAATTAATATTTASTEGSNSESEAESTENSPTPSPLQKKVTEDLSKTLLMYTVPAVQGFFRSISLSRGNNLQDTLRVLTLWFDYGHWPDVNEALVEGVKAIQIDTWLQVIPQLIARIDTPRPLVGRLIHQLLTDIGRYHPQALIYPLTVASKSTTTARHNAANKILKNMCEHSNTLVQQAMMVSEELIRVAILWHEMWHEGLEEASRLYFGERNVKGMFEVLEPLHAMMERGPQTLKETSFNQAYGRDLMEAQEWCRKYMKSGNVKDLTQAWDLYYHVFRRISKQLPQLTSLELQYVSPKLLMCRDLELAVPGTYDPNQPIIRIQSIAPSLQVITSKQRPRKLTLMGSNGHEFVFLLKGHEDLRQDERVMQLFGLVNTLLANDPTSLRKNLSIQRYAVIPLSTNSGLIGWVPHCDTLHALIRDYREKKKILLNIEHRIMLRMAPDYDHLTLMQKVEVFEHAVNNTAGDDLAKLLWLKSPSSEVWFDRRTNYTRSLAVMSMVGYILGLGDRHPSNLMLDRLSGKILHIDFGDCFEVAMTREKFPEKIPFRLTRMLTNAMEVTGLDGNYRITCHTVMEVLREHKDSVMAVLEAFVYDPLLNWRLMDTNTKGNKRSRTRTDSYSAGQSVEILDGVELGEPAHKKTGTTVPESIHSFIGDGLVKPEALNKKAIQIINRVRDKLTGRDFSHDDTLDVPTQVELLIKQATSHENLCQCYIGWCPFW

| Structure (SMILES) | IC50 [µM] |
| --- | --- |
| C[C@H]1COCCN1c1cc(CS(C)(=O)=O)nc(-c2ccc(NC(=S)NC3CC3)cc2)n1 [Example 1, 3-Cyclopropyl-1-[4-[4-[(3S)-3-methylmorpholin-4-yl]-6-(methylsulfonylmethyl)pyrimidin-2-yl]phenyl]thiourea] | 0.0197 |
| CCNC(=S)Nc1ccc(-c2nc(CS(C)(=O)=O)cc(N3CCOC[C@@H]3C)n2)cc1 [Example 1a, 3-ethyl-1-[4-[4-[(3S)-3-methylmorpholin-4-yl]-6-(methylsulfonylmethyl)pyrimidin-2-yl]phenyl]thiourea] | 0.0177 |
| COc1ccc(NC(=S)Nc2ccc(-c3nc(CS(C)(=O)=O)cc(N4CCOC[C@@H]4C)n3)cc2)cc1 [Example 1c, 3-(4-methoxyphenyl)-1-[4-[4-[(3S)-3-methylmorpholin-4-yl]-6-(methylsulfonylmethyl)pyrimidin-2-yl]phenyl]thiourea] | 0.0688 |
| C[C@H]1COCCN1c1cc(CS(C)(=O)=O)nc(-c2ccc(NC(=S)Nc3ccc(F)cc3)cc2)n1 [Example 1d, 3-(4-fluorophenyl)-1-[4-[4-[(3S)-3-methylmorpholin-4-yl]-6-(methylsulfonylmethyl)pyrimidin-2-yl]phenyl]thiourea] | 0.0215 |
| C[C@H]1COCCN1c1cc(C(C)(C)S(C)(=O)=O)nc(-c2ccc(NC(=S)NC3CC3)cc2)n1 [Example 2, 3-Cyclopropyl-1-[4-[4-[(3S)-3-methylmorpholin-4-yl]-6-(2-methylsulfonylpropan-2-yl)pyrimidin-2-yl]phenyl]thiourea] | 0.00477 |
| CNC(=S)Nc1ccc(-c2nc(N3CCOC[C@@H]3C)cc(C(C)(C)S(C)(=O)=O)n2)cc1 [Example 2a, 3-methyl-1-[4-[4-[(3S)-3-methylmorpholin-4-yl]-6-(2-methylsulfonylpropan-2-yl)pyrimidin-2-yl]phenyl]thiourea] | 0.0051 |
| CCNC(=S)Nc1ccc(-c2nc(N3CCOC[C@@H]3C)cc(C(C)(C)S(C)(=O)=O)n2)cc1 [Example 2b, 3-ethyl-1-[4-[4-[(3S)-3-methylmorpholin-4-yl]-6-(2-methylsulfonylpropan-2-yl)pyrimidin-2-yl]phenyl]thiourea] | 0.0068 |
| C[C@H]1COCCN1c1cc(C(C)(C)S(C)(=O)=O)nc(-c2ccc(NC(=S)NCCN(C)C)cc2)n1 [Example 2d, 3-(2-dimethylaminoethyl)-1-[4-[4-[(3S)-3-methylmorpholin-4-yl]-6-(2-methylsulfonylpropan-2-yl)pyrimidin-2-yl]phenyl]thiourea] | 0.305 |
| CNC(=S)Nc1ccc(-c2nc(N3CCOC[C@@H]3C)cc(C(C)(C)S(=O)(=O)c3ccccc3)n2)cc1 [Example 3, 1-[4-[4-[2-(Benzenesulfonyl)propan-2-yl]-6-[(3S)-3-methylmorpholin-4-yl]pyrimidin-2-yl]phenyl]-3-methylthiourea] | 0.011 |
| C[C@H]1COCCN1c1cc(C(C)(C)S(=O)(=O)c2ccccc2)nc(-c2ccc(NC(=S)NC3CC3)cc2)n1 [Example 3a, 1-[4-[4-[2-(benzenesulfonyl)propan-2-yl]-6-[(3S)-3-methylmorpholin-4-yl]pyrimidin-2-yl]phenyl]-3-cyclopropylthiourea] | 0.00717 |
| CCNC(=S)Nc1ccc(-c2nc(N3CCOC[C@@H]3C)cc(C(C)(C)S(=O)(=O)c3ccccc3)n2)cc1 [Example 3b, 1-[4-[4-[2-(benzenesulfonyl)propan-2-yl]-6-[(3S)-3-methylmorpholin-4-yl]pyrimidin-2-yl]phenyl]-3-ethylthiourea] | 0.0124 |
| C[C@H]1COCCN1c1cc(C(C)(C)S(=O)(=O)c2ccccc2)nc(-c2ccc(NC(=S)NCCO)cc2)n1 [Example 3c, 1-[4-[4-[2-(benzenesulfonyl)propan-2-yl]-6-[(3S)-3-methylmorpholin-4-yl]pyrimidin-2-yl]phenyl]-3-(2-hydroxyethyl)thiourea] | 0.00308 |
| C[C@H]1COCCN1c1cc(C(C)(C)S(=O)(=O)CCCO)nc(-c2ccc(NC(=S)NC3CC3)cc2)n1 [Example 4, 3-Cyclopropyl-1-[4-[4-[2-(3-hydroxypropylsulfonyl)propan-2-yl]-6-[(3S)-3-methylmorpholin-4-yl]pyrimidin-2-yl]phenyl]thiourea] | 0.161 |
| C[C@H]1COCCN1c1cc(C(C)(C)S(=O)(=O)CCCO)nc(-c2ccc(NC(=S)NCCO)cc2)n1 [Example 4a, 3-(2-hydroxyethyl)-1-[4-[4-[2-(3-hydroxypropylsulfonyl)propan-2-yl]-6-[(3S)-3-methylmorpholin-4-yl]pyrimidin-2-yl]phenyl]thiourea] | 0.0155 |
| CNC(=S)Nc1ccc(-c2nc(N3CCOC[C@@H]3C)cc(C(C)(C)S(=O)(=O)CCCO)n2)cc1 [Example 4b, 1-[4-[4-[2-(3-hydroxypropylsulfonyl)propan-2-yl]-6-[(3S)-3-methylmorpholin-4-yl]pyrimidin-2-yl]phenyl]-3-methylthiourea] | 0.154 |
| CCNC(=S)Nc1ccc(-c2nc(N3CCOC[C@@H]3C)cc(C(C)(C)S(=O)(=O)CCCO)n2)cc1 [Example 4c, 3-ethyl-1-[4-[4-[2-(3-hydroxypropylsulfonyl)propan-2-yl]-6-[(3S)-3-methylmorpholin-4-yl]pyrimidin-2-yl]phenyl]thiourea] | 0.0585 |
| C[C@H]1COCCN1c1cc(C(C)(C)O)nc(-c2ccc(NC(=S)NCCO)cc2)n1 [Example 5, 3-(2-Hydroxyethyl)-1-[4-[4-(2-hydroxypropan-2-yl)-6-[(3S)-3-methylmorpholin-4-yl]pyrimidin-2-yl]phenyl]thiourea] | 0.0079 |
| CNC(=S)Nc1ccc(-c2nc(N3CCOC[C@@H]3C)cc(C(C)(C)O)n2)cc1 [Example 5a, 1-[4-[4-(2-hydroxypropan-2-yl)-6-[(3S)-3-methylmorpholin-4-yl]pyrimidin-2-yl]phenyl]-3-methylthiourea] | 0.0367 |
| C[C@H]1COCCN1c1cc(C(C)(C)O)nc(-c2ccc(NC(=S)NC3CC3)cc2)n1 [Example 5b, 3-cyclopropyl-1-[4-[4-(2-hydroxypropan-2-yl)-6-[(3S)-3-methylmorpholin-4-yl]pyrimidin-2-yl]phenyl]thiourea] | 0.0384 |
| CCNC(=S)Nc1ccc(-c2nc(N3CCOC[C@@H]3C)cc(C(C)(C)O)n2)cc1 [Example 5c, 3-ethyl-1-[4-[4-(2-hydroxypropan-2-yl)-6-[(3S)-3-methylmorpholin-4-yl]pyrimidin-2-yl]phenyl]thiourea] | 0.0374 |
